This test deals with S. aureus DSM 20231. In words: Bliss interaction score (quartile over a dose matrix) (fitness difference); higher = more antagonism (negative = synergy). An outline of the steps: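 The Bliss score was calculated by subtracting the expected fitness, the product of single-drug values, from the observed fitness. OD595 at entry into stationary phase, over the plate's robust no-drug mean and capped at 1, served as the fitness readout. Single-drug values were inferred from combination data, and scores are summarised by quartiles across technical, biological and donor/recipient replicates.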
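Note: first quartile when negative (synergy) and third quartile when positive (antagonism).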

On to `CC(=O)OC[C@H]1O[C@@H]([S-])[C@H](OC(C)=O)[C@@H](OC(C)=O)[C@@H]1OC(C)=O.CCP(CC)CC.[Au+]` [Auranofin] + CC(=O)Oc1cccc2c1C(=O)c1c(OC(C)=O)cc(C(=O)O)cc1C2=O [Diacerein], for which the Bliss interaction score was -0.466.

On to `CC(=O)OC[C@H]1O[C@@H]([S-])[C@H](OC(C)=O)[C@@H](OC(C)=O)[C@@H]1OC(C)=O.CCP(CC)CC.[Au+]` [Auranofin] + C[C@H]1C[C@@H]2[C@H]([C@@H](O)C[C@@]3(C)[C@H]2CC[C@]3(O)C(=O)CO)[C@@]2(C)C=CC(=O)C=C12 [Methylprednisolone], for which the Bliss interaction score stood at 0.162.

Take `CCc1oc2ccccc2c1C(=O)c1cc(Br)c(O)c(Br)c1` [Benzbromarone] + C1=CC(=CC(=C1)Cl)NN=C(C#N)C#N [CCCP]: the Bliss interaction score was -0.103.

For the compound `CCc1oc2ccccc2c1C(=O)c1cc(Br)c(O)c(Br)c1` [Benzbromarone] + CC(C1CCC(C(O1)OC2C(CC(C(C2O)OC3C(C(C(CO3)(C)O)NC)O)N)N)N)NC [Gentamicin], the Bliss interaction score (main component drawn) amounted to 0.189.

Turning to `CCc1oc2ccccc2c1C(=O)c1cc(Br)c(O)c(Br)c1` [Benzbromarone] + N[C@@H]1CONC1=O [CycloserineD], the Bliss interaction score is -0.109.

As for `CCc1oc2ccccc2c1C(=O)c1cc(Br)c(O)c(Br)c1` [Benzbromarone] + O=C(O[C@@H]1Cc2c(O)cc(O)cc2O[C@@H]1c1cc(O)c(O)c(O)c1)c1cc(O)c(O)c(O)c1 [EGCG], the Bliss interaction score is -0.139.

In the case of `O=C(N[C@H](CO)[C@H](O)c1ccc([N+](=O)[O-])cc1)C(Cl)Cl` [Chloramphenicol] + CC(=O)Oc1cccc2c1C(=O)c1c(OC(C)=O)cc(C(=O)O)cc1C2=O [Diacerein], the Bliss interaction score was -0.41.

As to `O=C(N[C@H](CO)[C@H](O)c1ccc([N+](=O)[O-])cc1)C(Cl)Cl` [Chloramphenicol] + CCCSc1nc(N[C@@H]2C[C@H]2c2ccc(F)c(F)c2)c2nnn([C@@H]3C[C@H](OCCO)[C@@H](O)[C@H]3O)c2n1 [Ticagrelor], the Bliss interaction score was -0.239.

As for `O=C(N[C@H](CO)[C@H](O)c1ccc([N+](=O)[O-])cc1)C(Cl)Cl` [Chloramphenicol] + C[C@H]1C[C@@H]2[C@H]([C@@H](O)C[C@@]3(C)[C@H]2CC[C@]3(O)C(=O)CO)[C@@]2(C)C=CC(=O)C=C12 [Methylprednisolone], the Bliss interaction score was -0.204.

As to `CC[C@H]1OC(=O)[C@H](C)[C@@H](O[C@H]2C[C@@](C)(OC)[C@@H](O)[C@H](C)O2)[C@H](C)[C@@H](O[C@@H]2O[C@H](C)C[C@H](N(C)C)[C@H]2O)[C@](C)(OC)C[C@@H](C)C(=O)[C@H](C)[C@@H](O)[C@]1(C)O` [Clarithromycin] + CC(C)Cc1ccc(C(C)C(=O)O)cc1 [Ibuprofen], the Bliss interaction score was -0.171.

As for `CC[C@H]1OC(=O)[C@H](C)[C@@H](O[C@H]2C[C@@](C)(OC)[C@@H](O)[C@H](C)O2)[C@H](C)[C@@H](O[C@@H]2O[C@H](C)C[C@H](N(C)C)[C@H]2O)[C@](C)(OC)C[C@@H](C)C(=O)[C@H](C)[C@@H](O)[C@]1(C)O` [Clarithromycin] + CN1CCC[C@H]1c1cccnc1 [Nicotine], the Bliss interaction score is -0.223.

Turning to `CC[C@H]1OC(=O)[C@H](C)[C@@H](O[C@H]2C[C@@](C)(OC)[C@@H](O)[C@H](C)O2)[C@H](C)[C@@H](O[C@@H]2O[C@H](C)C[C@H](N(C)C)[C@H]2O)[C@](C)(OC)C[C@@H](C)C(=O)[C@H](C)[C@@H](O)[C@]1(C)O` [Clarithromycin] + C[C@H]1C[C@@H]2[C@H]([C@@H](O)C[C@@]3(C)[C@H]2CC[C@]3(O)C(=O)CO)[C@@]2(C)C=CC(=O)C=C12 [Methylprednisolone], the Bliss interaction score is -0.275.

As to `CC[C@H]1OC(=O)[C@H](C)[C@@H](O[C@H]2C[C@@](C)(OC)[C@@H](O)[C@H](C)O2)[C@H](C)[C@@H](O[C@@H]2O[C@H](C)C[C@H](N(C)C)[C@H]2O)[C@](C)(OC)C[C@@H](C)C(=O)[C@H](C)[C@@H](O)[C@]1(C)O` [Clarithromycin] + Cc1c(Cl)cccc1Nc1ccccc1C(=O)O [Tolfenamic], the Bliss interaction score was -0.245.

As to `CC[C@H]1OC(=O)[C@H](C)[C@@H](O[C@H]2C[C@@](C)(OC)[C@@H](O)[C@H](C)O2)[C@H](C)[C@@H](O[C@@H]2O[C@H](C)C[C@H](N(C)C)[C@H]2O)[C@](C)(OC)C[C@@H](C)C(=O)[C@H](C)[C@@H](O)[C@]1(C)O` [Clarithromycin] + O=C(O)Cc1cc(I)c(Oc2ccc(O)c(I)c2)c(I)c1 [Tiratricol], the Bliss interaction score was 0.192.

With `CCC[C@@H]1C[C@@H](C(=O)N[C@@H]([C@H]2O[C@H](SC)[C@H](O)[C@@H](O)[C@H]2O)[C@H](C)Cl)N(C)C1` [Clindamycin] + CC(C)Cc1ccc(C(C)C(=O)O)cc1 [Ibuprofen], the Bliss interaction score is -0.231.

The values are drawn from the supplement of paper PMC10627819.
